Assay results taken from ChEMBL document CHEMBL5291721, “A preclinical secondary pharmacology resource illuminates target-adverse drug reaction associations of marketed drugs” (Nat Commun, 2023).

What was measured:
[1] = target: T1, Alpha-1A adrenergic receptor (Homo sapiens, UniProt P35348); assay type: functional, cell-based
T1 sequence (P35348 whole entry): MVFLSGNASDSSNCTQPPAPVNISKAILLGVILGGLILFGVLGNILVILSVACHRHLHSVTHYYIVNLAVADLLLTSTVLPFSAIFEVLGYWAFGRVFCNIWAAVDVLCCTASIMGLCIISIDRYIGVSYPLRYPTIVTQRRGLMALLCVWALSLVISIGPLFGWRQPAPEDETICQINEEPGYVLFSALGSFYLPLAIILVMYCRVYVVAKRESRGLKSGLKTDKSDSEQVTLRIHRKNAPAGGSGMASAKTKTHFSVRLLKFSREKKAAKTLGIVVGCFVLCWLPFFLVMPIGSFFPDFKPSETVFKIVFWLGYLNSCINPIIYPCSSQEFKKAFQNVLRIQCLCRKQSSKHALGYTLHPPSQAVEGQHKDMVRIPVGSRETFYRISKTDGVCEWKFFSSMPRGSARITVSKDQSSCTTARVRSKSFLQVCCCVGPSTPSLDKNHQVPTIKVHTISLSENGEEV

[2] = target: Gamma-aminobutyric acid receptor subunit alpha-1 (Rattus norvegicus, UniProt P62813); assay type: functional
Chain of Gamma-aminobutyric acid receptor subunit alpha-1 (P62813 whole entry): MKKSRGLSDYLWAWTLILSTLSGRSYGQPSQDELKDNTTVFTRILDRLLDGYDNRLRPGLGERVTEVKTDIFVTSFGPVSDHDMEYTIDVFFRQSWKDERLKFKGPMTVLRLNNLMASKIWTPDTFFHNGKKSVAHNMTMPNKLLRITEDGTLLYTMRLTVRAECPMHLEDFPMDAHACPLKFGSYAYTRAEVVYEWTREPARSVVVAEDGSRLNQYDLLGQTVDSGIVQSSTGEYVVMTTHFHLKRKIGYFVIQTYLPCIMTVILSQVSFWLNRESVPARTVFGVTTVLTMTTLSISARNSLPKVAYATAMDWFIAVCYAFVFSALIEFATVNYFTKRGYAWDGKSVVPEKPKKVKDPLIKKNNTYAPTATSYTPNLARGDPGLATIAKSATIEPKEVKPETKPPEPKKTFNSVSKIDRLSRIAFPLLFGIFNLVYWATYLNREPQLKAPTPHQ

[3] = target: Beta-1 adrenergic receptor (Homo sapiens, UniProt P08588); assay type: functional
Chain of Beta-1 adrenergic receptor (P08588 whole entry): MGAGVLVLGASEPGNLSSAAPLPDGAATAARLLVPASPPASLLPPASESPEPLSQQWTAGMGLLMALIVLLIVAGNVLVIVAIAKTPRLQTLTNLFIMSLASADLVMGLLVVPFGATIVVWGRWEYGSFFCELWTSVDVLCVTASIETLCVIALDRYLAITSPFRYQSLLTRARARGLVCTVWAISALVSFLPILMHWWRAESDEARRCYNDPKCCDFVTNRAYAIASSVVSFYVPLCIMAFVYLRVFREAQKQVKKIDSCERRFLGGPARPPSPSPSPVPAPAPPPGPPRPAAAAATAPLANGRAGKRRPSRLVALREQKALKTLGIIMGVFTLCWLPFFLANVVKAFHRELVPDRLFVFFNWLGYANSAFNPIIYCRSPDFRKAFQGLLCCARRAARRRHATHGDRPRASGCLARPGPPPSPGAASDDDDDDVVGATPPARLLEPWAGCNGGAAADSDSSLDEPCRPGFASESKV

[4] = target: T2, 5-hydroxytryptamine receptor 2C (Homo sapiens, UniProt P28335)
T2 sequence (P28335 whole entry): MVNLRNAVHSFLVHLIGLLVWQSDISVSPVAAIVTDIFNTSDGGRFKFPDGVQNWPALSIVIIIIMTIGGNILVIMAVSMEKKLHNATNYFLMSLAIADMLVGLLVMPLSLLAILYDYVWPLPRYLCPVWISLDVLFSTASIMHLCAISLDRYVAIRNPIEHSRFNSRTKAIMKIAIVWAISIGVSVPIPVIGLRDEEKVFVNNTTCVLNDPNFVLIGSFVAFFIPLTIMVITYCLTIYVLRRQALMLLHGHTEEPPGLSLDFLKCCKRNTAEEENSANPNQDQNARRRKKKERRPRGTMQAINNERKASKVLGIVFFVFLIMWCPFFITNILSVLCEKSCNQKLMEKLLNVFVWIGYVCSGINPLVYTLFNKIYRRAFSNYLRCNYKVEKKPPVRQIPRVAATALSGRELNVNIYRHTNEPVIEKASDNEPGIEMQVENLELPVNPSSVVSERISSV

[5] = target: T3, Alpha-2C adrenergic receptor (Homo sapiens, UniProt P18825); assay type: functional
T3 sequence (P18825 whole entry): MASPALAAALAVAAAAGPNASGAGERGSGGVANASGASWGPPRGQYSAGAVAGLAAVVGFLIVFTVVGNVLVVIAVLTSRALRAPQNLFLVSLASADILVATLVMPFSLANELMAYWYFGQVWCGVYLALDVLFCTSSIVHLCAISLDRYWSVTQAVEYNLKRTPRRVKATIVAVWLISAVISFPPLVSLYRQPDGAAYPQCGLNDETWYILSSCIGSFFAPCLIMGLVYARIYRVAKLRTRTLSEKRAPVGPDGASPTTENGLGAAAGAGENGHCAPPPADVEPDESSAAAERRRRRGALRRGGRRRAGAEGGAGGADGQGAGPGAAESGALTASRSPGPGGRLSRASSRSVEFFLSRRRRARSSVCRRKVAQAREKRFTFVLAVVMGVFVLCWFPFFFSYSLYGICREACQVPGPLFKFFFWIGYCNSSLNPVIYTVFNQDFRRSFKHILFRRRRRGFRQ

[6] = target: T4, 5-hydroxytryptamine receptor 1A (Homo sapiens, UniProt P08908); assay type: functional, cell-based
T4 sequence (P08908 whole entry): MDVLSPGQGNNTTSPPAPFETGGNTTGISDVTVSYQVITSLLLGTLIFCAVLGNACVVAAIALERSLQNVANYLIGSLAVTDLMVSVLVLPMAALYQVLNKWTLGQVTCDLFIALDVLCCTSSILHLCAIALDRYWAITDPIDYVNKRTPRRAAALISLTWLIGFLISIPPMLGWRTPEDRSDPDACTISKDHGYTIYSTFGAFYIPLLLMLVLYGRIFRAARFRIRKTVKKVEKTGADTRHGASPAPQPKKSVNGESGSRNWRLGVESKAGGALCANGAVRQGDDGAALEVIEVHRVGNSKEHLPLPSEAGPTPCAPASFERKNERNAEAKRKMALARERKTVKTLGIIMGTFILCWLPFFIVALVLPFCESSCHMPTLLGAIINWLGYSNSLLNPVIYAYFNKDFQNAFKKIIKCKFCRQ

Histamine H1 receptor = Histamine H1 receptor (Homo sapiens, UniProt P35367)
Chain of Histamine H1 receptor (P35367 whole entry): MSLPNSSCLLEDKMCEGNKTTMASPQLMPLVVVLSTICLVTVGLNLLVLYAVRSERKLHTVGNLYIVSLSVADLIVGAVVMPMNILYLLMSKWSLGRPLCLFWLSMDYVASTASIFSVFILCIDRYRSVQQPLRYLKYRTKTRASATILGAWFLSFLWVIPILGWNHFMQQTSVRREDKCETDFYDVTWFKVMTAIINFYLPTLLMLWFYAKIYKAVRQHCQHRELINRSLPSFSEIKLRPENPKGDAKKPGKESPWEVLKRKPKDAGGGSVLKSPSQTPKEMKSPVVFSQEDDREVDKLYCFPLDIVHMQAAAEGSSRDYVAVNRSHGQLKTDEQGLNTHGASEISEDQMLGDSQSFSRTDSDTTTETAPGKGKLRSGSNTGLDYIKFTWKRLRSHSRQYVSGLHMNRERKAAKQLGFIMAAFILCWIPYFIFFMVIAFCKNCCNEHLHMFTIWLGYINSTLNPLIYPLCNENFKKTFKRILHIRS

[7] = target: Glutamate receptor ionotropic, NMDA 1 (Rattus norvegicus, UniProt P35439)
[8] = target: Muscarinic acetylcholine receptor M3 (Homo sapiens, UniProt P20309)
[9] = target: Vascular endothelial growth factor receptor 2 (Homo sapiens, UniProt P35968); assay type: functional
Chain of Vascular endothelial growth factor receptor 2 (P35968 whole entry): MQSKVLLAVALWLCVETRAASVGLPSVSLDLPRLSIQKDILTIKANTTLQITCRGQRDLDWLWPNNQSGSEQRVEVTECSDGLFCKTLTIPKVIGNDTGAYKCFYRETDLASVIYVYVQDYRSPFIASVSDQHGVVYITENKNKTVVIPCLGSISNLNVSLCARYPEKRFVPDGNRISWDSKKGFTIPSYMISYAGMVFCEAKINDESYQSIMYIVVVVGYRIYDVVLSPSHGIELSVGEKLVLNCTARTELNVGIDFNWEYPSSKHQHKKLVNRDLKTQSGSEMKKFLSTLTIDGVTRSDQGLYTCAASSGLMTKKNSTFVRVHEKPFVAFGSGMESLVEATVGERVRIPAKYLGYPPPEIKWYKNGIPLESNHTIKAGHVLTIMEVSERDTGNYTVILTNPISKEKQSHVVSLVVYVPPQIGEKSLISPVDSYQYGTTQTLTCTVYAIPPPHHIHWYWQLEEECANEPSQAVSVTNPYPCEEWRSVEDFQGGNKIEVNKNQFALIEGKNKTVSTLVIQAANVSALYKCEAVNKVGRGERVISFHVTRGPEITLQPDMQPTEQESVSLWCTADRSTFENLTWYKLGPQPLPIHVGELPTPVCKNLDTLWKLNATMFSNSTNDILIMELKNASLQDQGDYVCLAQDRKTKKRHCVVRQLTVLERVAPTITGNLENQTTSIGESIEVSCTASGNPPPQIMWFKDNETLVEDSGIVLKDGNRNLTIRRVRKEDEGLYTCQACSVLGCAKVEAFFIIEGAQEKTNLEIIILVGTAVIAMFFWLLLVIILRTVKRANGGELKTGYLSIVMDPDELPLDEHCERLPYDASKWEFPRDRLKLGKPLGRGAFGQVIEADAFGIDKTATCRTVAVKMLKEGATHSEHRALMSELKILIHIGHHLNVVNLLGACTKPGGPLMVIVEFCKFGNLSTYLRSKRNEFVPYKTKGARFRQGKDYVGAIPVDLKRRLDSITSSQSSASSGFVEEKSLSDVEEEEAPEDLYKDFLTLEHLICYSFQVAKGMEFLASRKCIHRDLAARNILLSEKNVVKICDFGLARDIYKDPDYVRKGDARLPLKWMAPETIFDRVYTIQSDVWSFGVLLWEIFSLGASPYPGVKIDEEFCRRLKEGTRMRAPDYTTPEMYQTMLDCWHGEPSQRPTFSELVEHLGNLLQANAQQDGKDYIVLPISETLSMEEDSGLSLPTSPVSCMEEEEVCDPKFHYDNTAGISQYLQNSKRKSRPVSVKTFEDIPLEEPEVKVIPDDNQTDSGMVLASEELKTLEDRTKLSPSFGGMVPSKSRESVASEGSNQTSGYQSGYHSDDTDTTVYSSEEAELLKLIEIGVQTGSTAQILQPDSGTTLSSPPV

[10] = target: 3',5'-cyclic-AMP phosphodiesterase 4A (Homo sapiens, UniProt P27815); assay type: functional
[11] = target: T5, Muscarinic acetylcholine receptor M2 (Homo sapiens, UniProt P08172)
T5 sequence (P08172 whole entry): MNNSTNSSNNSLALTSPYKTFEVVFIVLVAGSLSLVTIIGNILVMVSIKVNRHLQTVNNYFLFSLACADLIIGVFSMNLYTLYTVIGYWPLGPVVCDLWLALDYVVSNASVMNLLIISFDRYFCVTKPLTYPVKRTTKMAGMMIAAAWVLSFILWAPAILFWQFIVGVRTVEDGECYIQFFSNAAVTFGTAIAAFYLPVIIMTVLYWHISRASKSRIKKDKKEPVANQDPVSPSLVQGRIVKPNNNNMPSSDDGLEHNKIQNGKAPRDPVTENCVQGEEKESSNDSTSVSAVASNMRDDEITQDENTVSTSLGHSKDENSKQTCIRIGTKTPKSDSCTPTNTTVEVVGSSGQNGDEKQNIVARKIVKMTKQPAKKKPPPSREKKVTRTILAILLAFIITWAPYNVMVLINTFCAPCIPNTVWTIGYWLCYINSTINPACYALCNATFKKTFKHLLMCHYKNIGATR

[12] = target: Gamma-aminobutyric acid receptor subunit alpha-1/alpha-2/beta-2/gamma-2 (Homo sapiens, UniProt P14867+P18507+P47869+P47870); assay type: protein-complex assay
Chain of Gamma-aminobutyric acid receptor subunit alpha-1/alpha-2/beta-2/gamma-2 (P14867 whole entry): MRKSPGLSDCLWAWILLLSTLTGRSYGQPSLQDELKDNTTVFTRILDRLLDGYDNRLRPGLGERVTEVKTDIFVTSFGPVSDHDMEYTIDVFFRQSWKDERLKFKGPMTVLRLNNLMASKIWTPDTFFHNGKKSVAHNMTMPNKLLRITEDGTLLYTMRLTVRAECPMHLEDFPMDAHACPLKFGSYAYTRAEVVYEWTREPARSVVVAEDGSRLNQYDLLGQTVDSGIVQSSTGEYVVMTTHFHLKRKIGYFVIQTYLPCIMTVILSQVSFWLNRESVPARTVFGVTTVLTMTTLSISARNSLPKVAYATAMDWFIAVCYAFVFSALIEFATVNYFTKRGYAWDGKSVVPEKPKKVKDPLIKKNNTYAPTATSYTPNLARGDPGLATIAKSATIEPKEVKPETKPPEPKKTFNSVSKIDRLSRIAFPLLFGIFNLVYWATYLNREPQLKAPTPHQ
Chain of Gamma-aminobutyric acid receptor subunit alpha-1/alpha-2/beta-2/gamma-2 (P47870 whole entry): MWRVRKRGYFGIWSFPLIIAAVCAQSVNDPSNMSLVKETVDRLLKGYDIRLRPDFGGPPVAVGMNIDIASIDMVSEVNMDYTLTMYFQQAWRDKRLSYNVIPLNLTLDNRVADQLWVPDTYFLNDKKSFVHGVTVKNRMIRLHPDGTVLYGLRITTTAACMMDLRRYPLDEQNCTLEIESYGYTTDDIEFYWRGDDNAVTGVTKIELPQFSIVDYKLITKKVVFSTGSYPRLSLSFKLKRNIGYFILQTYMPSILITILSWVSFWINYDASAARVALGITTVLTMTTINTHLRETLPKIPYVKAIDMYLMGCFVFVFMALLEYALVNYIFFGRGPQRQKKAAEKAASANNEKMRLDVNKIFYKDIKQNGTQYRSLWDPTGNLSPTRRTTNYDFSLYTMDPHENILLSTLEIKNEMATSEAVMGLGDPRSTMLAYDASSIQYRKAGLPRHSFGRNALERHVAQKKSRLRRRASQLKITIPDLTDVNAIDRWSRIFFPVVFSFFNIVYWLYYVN
Chain of Gamma-aminobutyric acid receptor subunit alpha-1/alpha-2/beta-2/gamma-2 (P18507 whole entry): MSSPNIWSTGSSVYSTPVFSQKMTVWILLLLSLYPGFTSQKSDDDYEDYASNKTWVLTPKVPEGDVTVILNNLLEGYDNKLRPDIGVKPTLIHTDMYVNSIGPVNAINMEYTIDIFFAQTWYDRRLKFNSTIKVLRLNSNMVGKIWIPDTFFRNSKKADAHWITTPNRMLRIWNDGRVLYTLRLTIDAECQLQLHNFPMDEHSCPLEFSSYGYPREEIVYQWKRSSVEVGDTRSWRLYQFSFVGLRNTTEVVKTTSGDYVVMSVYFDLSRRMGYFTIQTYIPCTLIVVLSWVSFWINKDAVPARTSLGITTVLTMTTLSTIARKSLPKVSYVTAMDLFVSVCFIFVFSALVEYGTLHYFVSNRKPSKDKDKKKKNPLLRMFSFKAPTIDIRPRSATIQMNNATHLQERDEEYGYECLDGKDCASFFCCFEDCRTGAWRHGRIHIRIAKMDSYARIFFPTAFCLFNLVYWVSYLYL
Chain of Gamma-aminobutyric acid receptor subunit alpha-1/alpha-2/beta-2/gamma-2 (P47869 whole entry): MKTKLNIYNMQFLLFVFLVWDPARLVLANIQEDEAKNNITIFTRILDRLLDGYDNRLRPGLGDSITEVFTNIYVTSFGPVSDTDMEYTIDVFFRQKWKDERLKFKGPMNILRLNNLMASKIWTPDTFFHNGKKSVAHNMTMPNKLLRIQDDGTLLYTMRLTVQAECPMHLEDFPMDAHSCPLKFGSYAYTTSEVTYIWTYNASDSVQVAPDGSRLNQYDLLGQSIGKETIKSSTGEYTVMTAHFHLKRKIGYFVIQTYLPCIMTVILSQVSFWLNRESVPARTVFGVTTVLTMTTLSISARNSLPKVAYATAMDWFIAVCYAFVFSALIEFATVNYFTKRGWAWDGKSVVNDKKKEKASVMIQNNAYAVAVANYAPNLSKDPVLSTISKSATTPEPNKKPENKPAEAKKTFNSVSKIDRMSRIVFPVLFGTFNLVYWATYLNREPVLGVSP

[13] = target: Sodium-dependent dopamine transporter (Homo sapiens, UniProt Q01959)
[14] = target: T1, Alpha-1A adrenergic receptor; assay type: functional, cell-based; remark: listed apart in the source
Further: assay procedure not described here.

Row | Compound | AC50 [1] [µM] | AC50 [2] [µM] | AC50 [3] [µM] | AC50 [4] [µM] | AC50 [5] [µM] | AC50 [6] [µM] | AC50 (Histamine H1 receptor) [µM] | AC50 [7] [µM] | AC50 [8] [µM] | AC50 [9] [µM] | AC50 [10] [µM] | AC50 [11] [µM] | AC50 [12] [µM] | AC50 [13] [µM] | AC50 [14] [µM]
1 | CCN(CC)C(=O)C1(c2ccccc2)CC1CN (stereo not given) | > 30 | > 30 | > 30 | 0.59 | > 30 | > 30 | > 30 | > 30 | > 30 | – | – | – | – | – | –
2 | CN(C)C(=O)Oc1cccc([N+](C)(C)C)c1 [NEOSTIGMINE] | – | – | – | – | – | – | – | – | – | > 30 | > 30 | > 30 | > 30 | > 30 | > 30
